Reference: patent US20150094354A1, “METHOD FOR TREATING CELL PROLIFERATIVE DISORDER BY INHIBITING C1GALT1 EXPRESSION” (National Taiwan University, priority 2013, published 2015)

Key:
MET [1] = assay: VVA lectin pull-down of MET; type: cell-based, human
Description: Vicia villosa agglutinin (VVA)- and peanut agglutinin (PNA) lectin-conjugated agarose beads, fluorescein isothiocyanate (FITC)-, and biotinylated VVA were purchased from Vector Laboratories. Recombinant EGF, HGF, IGF-I, and protein deglycosylation kits were purchased from Sigma. Protein deglycosylation is carried out using an Enzymatic Protein Deglycosylation Kit (Sigma). Briefly, cell lysates are treated with neuraminidase or PNGase F at 37° C. for 1 hour. For lectin blotting, […] of cell lysate is separated by an 8% SDS-PAGE, transferred to polyvinylidene difluoride membrane (Millipore), and blotted with biotinylated VVA (1:10,000). For lectin pull-down assay, cell lysates (0.3 mg) are incubated with or without deglycosylation enzymes and then applied to VVA- or PNA-conjugated agarose beads at 4° C. for 16 hours. The pulled down proteins are analyzed by Western blotting.
To investigate whether C1GALT1 can modify O-glycans on MET, VVA binding to MET was analyzed in hepatocellular carcinoma cells with C1GALT1 knockdown or overexpression. […] Cell lysates were treated with (+) or without (−) neuraminidase and then pulled down by VVA agarose beads. The pulled down glycoproteins were immunoblotted (IB) with anti-MET antibody. These findings indicate that C1GALT1 can modify O-glycans on MET in hepatocellular carcinoma cells. […]

MET [2] = assay: HGF-induced dimerization of MET (BS3 cross-linking, Western blotting); type: cell-based, human; details: 25 ng/mL HGF
Description: MET is also called hepatocyte growth factor receptor (HGFR). The MET gene is an important protooncogene in a variety of human cancers. To analyze dimerization of MET, hepatocellular carcinoma cells are incubated with or without 25 ng/mL of human HGF in DMEM on ice for 5 minutes. Cross-linker Bis(sulfosuccinimidyl) suberate (BS3, 0.25 mmol/L, Thermo Scientific) is added to cells and reacted at 37° C. for 5 minutes. Cells are then transferred on ice for 10 minutes. Reactions are blocked by adding 50 mmol/L of Tris-HCl (pH 7.4). Cell lysates are separated by 6% SDS-PAGE and immunoblotted with anti-MET antibody.
Because HGF-induced dimerization of MET is an initial and crucial step for the activation of MET signaling, whether C1GALT1 could affect MET dimerization was analyzed. FIGS. 19A-19B are autoradiograms illustrating the effects of C1GALT1 on dimerization of MET in hepatocellular carcinoma cells in accordance with an embodiment of the present invention. Hepatocellular carcinoma cells were starved for 5 hours and then treated with (+) or without (−) 25 ng/mL of HGF. Cell lysates were cross-linked by BS3 and then analyzed by Western blotting with anti-MET antibody. The arrows indicate the dimer (D) of MET, and the arrowheads indicate the monomer (M). Markers of molecular weight are shown on the left. GAPDH is an internal control.

## C1GALT1 si-1: siRNA oligonucleotide against C1GALT1, presumably SEQ ID NO: 1, UUAGUAUACGUUCAGGUAAGGUAGG (chemistry not given here)
MET [1]; HA22T cells
  VVA binding to MET: increased
MET [1]; PLC5 cells
  VVA binding to MET: increased
MET [2]; HA22T cells
  HGF-induced dimerization of MET: suppressed
MET [2]; PLC5 cells
  HGF-induced dimerization of MET: suppressed
